Experimental data published in patent US20220220152A1, “BIVALENT ANTAGONISTS OF INHIBITORS OF APOPTOSIS PROTEINS” (Hepagene Therapeutics (HK) Limited, priority 2019, published 2022).

Tests used:
[1] = target: T1, cIAP2-BIR3 (Homo sapiens, UniProt Q13489); assay: cIAP2-BIR3 fluorescence polarization binding assay; conditions: FP, probe AbuRPFK-5FAM (SM5F) 5 nM, cIAP2-BIR3 80 nM, 60 min at 25° C.
T1 construct: cIAP2-BIR3; purchased Reaction Biology APT-11-372
How it was run: (§1)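 Fluorescence polarization competition using 5-carboxyfluorescein-labelled peptide probe AbuRPFK-5FAM; protein and compound preincubated 15 min, probe added, then 60 min at 25° C.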

[2] = target: T2, XIAP-BIR3 (Homo sapiens, UniProt P98170); assay: XIAP-BIR3 fluorescence polarization binding assay; conditions: FP, probe AbuRPFK-5FAM (SM5F) 5 nM, XIAP-BIR3 40 nM, 60 min at 25° C.
T2 construct: XIAP-BIR3; purchased Reaction Biology APT-11-374
How it was run: as §1

[3] = target: T3, cIAP1-BIR3 (Homo sapiens, UniProt Q13490); assay: cIAP1-BIR3 fluorescence polarization binding assay; conditions: FP, probe AbuRPFK-5FAM (SM5F) 5 nM, cIAP1-BIR3 15 nM, 60 min at 25° C.
T3 construct: cIAP1-BIR3; purchased Reaction Biology APT-11-370
How it was run: as §1

T2 sequence (P98170 241-356 limits assumed): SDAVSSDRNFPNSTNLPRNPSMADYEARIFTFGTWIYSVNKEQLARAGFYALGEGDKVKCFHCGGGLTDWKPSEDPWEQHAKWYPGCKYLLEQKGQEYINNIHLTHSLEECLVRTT
T3 sequence (Q13490 253-363 limits assumed): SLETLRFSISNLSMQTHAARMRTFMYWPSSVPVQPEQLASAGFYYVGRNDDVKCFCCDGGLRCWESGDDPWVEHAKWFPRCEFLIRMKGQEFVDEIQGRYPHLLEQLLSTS
T1 sequence (Q13489 238-349 limits assumed): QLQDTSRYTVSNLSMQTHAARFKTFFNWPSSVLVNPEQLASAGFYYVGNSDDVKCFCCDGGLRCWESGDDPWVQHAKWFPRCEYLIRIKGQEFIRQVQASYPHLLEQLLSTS

| SMILES | IC50 [1] | IC50 [2] | IC50 [3] |
| --- | --- | --- | --- |
| CN[C@@H](C)C(=O)N[C@H](C(=O)N1CCC[C@H]1C(=O)N[C@@H]1CCCc2c(OCCc3ccc(CCOc4cccc5c4CCC[C@H]5NC(=O)[C@@H]4CCCN4C(=O)[C@@H](NC(=O)[C@H](C)NC)C4CCCCC4)cc3)cccc21)C1CCCCC1 [Compound I, (2S)-1-[(2S)-2-Cyclohexyl-2-[(2S)-2-(methylamino)propanamido]acetyl]-N-[(1R)-5-[2-[4-(2-[[(5R)-5-[(2S)-1-[(2S)-2-cyclohexyl-2-[(2S)-2-(methylamino)propanamido]acetyl]pyrrolidine-2-amido]-5,6,7,8-tetrahydronaphthalen-1-yl]oxy]ethyl)phenyl]ethoxy]-1,2,3,4-tetrahydmnaphthalen-1-yl]pyrrolidine-2-carboxamide] | 0.01 to 0.1 µM | 0.01 to 0.1 µM | 0.001 to 0.01 µM |
| CN[C@@H](C)C(=O)N[C@H](C(=O)N1CCC[C@H]1C(=O)N[C@@H]1CCCc2c(-c3cccc(-c4cccc5c4CCC[C@H]5NC(=O)[C@@H]4CCCN4C(=O)[C@@H](NC(=O)[C@H](C)NC)C(C)C)c3)cccc21)C(C)C [Compound III-E, (2S)-1-[(2S)-3-methyl-2-[(2S)-2-(methylamino)propanamido]butanoyl]-N-[(1R)-5-[3-[(5R)-5-[(2S)-1-[(2S)-3-methyl-2-[(2S)-2-(methylamino)propanamido]butanoyl]pyrrolidine-2-amido]-5,6,7,8-tetrahydronaphthalen-1-yl]phenyl]-1,2,3,4-tetrahydronaphthalen-1-yl]pyrrolidine-2-carboxamide] | 0.01 to 0.1 µM | 0.001 to 0.01 µM | 0.001 to 0.01 µM |
| CN[C@@H](C)C(=O)N[C@H](C(=O)N1CCC[C@H]1C(=O)N[C@@H]1CCCc2c(-c3cccc(-c4cccc5c4CCC[C@H]5NC(=O)[C@@H]4CCCN4C(=O)[C@@H](NC(=O)[C@H](C)NC)C(C)(C)C)c3)cccc21)C(C)(C)C [Compound III-F, (2S)-1-[(2S)-3,3-dimethyl-2-[(2S)-2-(methylamino)propanamido]butanoyl]-N-[(1R)-5-[3-[(5R)-5-[(2S)-1-[(2S)-3,3-dimethyl-2-[(2S)-2-(methylamino)propanamido]butanoyl]pyrrolidine-2-amido]-5,6,7,8-tetrahydronaphthalen-1-yl]phenyl]-1,2,3,4-tetrahydronaphthalen-1-yl]pyrrolidine-2-carboxamide] | 0.01 to 0.1 µM | 0.01 to 0.1 µM | 0.001 to 0.01 µM |

Now from value to compound:

| IC50 [1] | IC50 [2] | IC50 [3] | SMILES |
| --- | --- | --- | --- |
| 0.01 to 0.1 µM | 0.01 to 0.1 µM | 0.001 to 0.01 µM | CN[C@@H](C)C(=O)N[C@H](C(=O)N1CCC[C@H]1C(=O)N[C@@H]1CCOc2c(-c3cccc4c3OCC[C@H]4NC(=O)[C@@H]3CCCN3C(=O)[C@@H](NC(=O)[C@H](C)NC)C3CCOCC3)cccc21)C1CCOCC1 [Compound V-Q, (S)-1-((S)-2-((S)-2-(methylamino)propanamido)-2-(tetrahydro-2H-pyran-4-yl)acetyl)-N-((4R,4′R)-4′-((S)-1-((S)-2-((S)-2-(methylamino)propanamido)-2-(tetrahydro-2H-pyran-4-yl)acetyl)pyrrolidine-2-carboxamido)-[8,8′-bichroman]-4-yl)pyrrolidine-2-carboxamide] |
| 0.01 to 0.1 µM | 0.01 to 0.1 µM | 0.001 to 0.01 µM | CN[C@@H](C)C(=O)N[C@H](C(=O)N1CCC[C@H]1C(=O)N[C@@H]1CCOc2c(-c3cccc4c3OCC[C@H]4NC(=O)[C@@H]3CCCN3C(=O)[C@@H](NC(=O)[C@H](C)NC)C(C)(C)C)cccc21)C(C)(C)C [Compound V-D, (2S)-1-[(2S)-3,3-dimethyl-2-[(2S)-2-(methylamino)propanamido]butanoyl]-N-[(4R)-8-[(4R)-4-[(2S)-1-(2S)-3,3-dimethyl-2-[(2S)-2-(methylamino)propanamido]butanoyl]pyrrolidine-2-amido]-3,4-dihydro-2H-1-benzopyran-8-yl-3,4-dihydro-2H-1-benzopyran-4-yl]pyrrolidine-2-carboxamide] |
| 0.001 to 0.01 µM | 0.01 to 0.1 µM | 0.001 to 0.01 µM | CN[C@@H](C)C(=O)N[C@H](C(=O)N1CCC[C@H]1C(=O)N[C@@H]1CCCc2c(NC(=O)c3cccc4c3CCC[C@H]4NC(=O)[C@@H]3CCCN3C(=O)[C@@H](NC(=O)[C@H](C)NC)C(C)C)cccc21)C(C)C [VII-A, (2S)-1-[(2S)-3-methyl-2-[(2S)-2-(methylamino)propanamido]butanoyl]-N-[(1R)-5-[[(5R)-5-[(2S)-1-[(2S)-3-methyl-2-[(2S)-2-(methylamino)propanamido]butanoyl]pyrrolidine-2-amido]-5,6,7,8-tetrahydronaphthalen-1-yl]carbamoyl]-1,2,3,4-tetrahydronaphthalen-1-yl]pyrrolidine-2-carboxamide] |
| 0.01 to 0.1 µM | 0.01 to 0.1 µM | 0.001 to 0.01 µM | CN[C@@H](C)C(=O)N[C@H](C(=O)N1CCC[C@H]1C(=O)N[C@@H]1CCc2c(-c3cccc4c3CC[C@H]4NC(=O)[C@@H]3CCCN3C(=O)[C@@H](NC(=O)[C@H](C)NC)C(C)C)cccc21)C(C)C [Compound V-G, (2S)-1-[(2S)-3-methyl-2-[(2S)-2-(methylamino)propanamido]butanoyl]-N-[(1R,1′R)-1′-[(2S)-1-[(2S)-3-methyl-2-[(2S)-2-(methylamino)propanamido]butanoyl]pyrrolidine-2-amido]-1H,1′H,2H,2′H,3H,3′H-[4,4′-biinden]-1-yl]pyrrolidine-2-carboxamide] |
